Data as given in patent publication US20070054868A1, “Synergistic polyphenol compounds, compositions thereof, and uses thereof” (The Trustees of Columbia University in the City of New York, priority 2005, published 2007).

How the values were obtained:
IGFBP-3 = experiment: Production of IGFBP-3 in HepG2 cells; format: cell-based, human; conditions: 20 μg/mL
Protocol: The cells were treated with […] EGCG at 0, 3, 6, 12, 24 and 48 hours, and cell extracts were examined by Western blot analysis using the respective antibodies, or were examined by semiquantitative RT-PCR analysis using IGFBP-3 or IGF-1 specific primers.
Using the MTT cell proliferation assay described in Example 21, and substituting HepG2 human liver cancer cells in place of SW837 cells, the effects of EGCG (20 μg/mL), an illustrative Synergistic Polyphenol Compound, on the production of IGF-1, IGF-2 and IGFBP-3 was determined. […] Accordingly, the Synergistic Polyphenol Compounds are useful for treating or preventing liver cancer.

[1] = tested on: HT29 human colon cancer cells; experiment: DilC16-labelled plasma membrane, extraction using cold Triton X-100; format: cell-based
Protocol: HT29 human colon cancer cells were treated with the fluorescent lipid analog DilC16, which preferentially incorporates into ordered domains in the plasma membrane.

[2] = tested on: SW837 human colon cancer cells; experiment: Cell proliferation assay (Coulter Counter); format: cell-based; conditions: 1.0 μg/mL, 96 hours
Protocol: Thirty thousand SW837 human colon cancer cells were seeded into multiple 35-mm diameter dishes in DFI0 medium, and 24 hours later the cells were treated with EGCG (0, 1.0, or 20 μg/mL) for 96 hours, during which time, the medium and drugs were not changed. As a control, the cells were treated with 0.1% DMSO. Every 24 hours, and for a total time of 96 hours, replicate plates of cells were washed with PBS and the attached cells were collected by trypsinization. The numbers of cells in replica plates were then counted using a Coulter Counter (Beckman Coulter Co., Fullerton, Calif.) as described in Shimizu et al., Clin. Cancer Res., 10:1130-1140 (2004).

p-HER3 = experiment: Immunoprecipitation and western blot analysis in SW837 cells; format: cell-based, human
From the text: Total cellular protein was extracted and equivalent amounts of protein can be determined by western blot analysis using the methods described in Suzui, et al., Cancer Res., 62:3997-4006 (2002). The primary antibodies for several proteins are described in Masuda et al., Clin Cancer Res., 7:4220-4229 (2001); Masuda et al., Clin Cancer Res., 9:3486-3491 (2003); and Shimizu et al., Clin Cancer Res., 11:2735-2746 (2005). The primary antibodies for HER3 (2F12) and COX-2 (PG27) were purchased from Upstate Cell Signaling Solutions (Charlottesville, Va.) and Oxford Biochemical Research (Oxford, Mich.), respectively. To examine the levels of expression of the phosphorylated (i.e. activated) form of the HER3 protein (p-HER3), cellular lysates (1 mg/mL) were incubated with 4 μg anti-HER3 antibody overnight at 4° C. with slow agitation, and immune complexes were then precipitated by adding protein A/G agarose (sc-2003, Santa Cruz Biotechnology, Santa Cruz, Calif.). After incubating for 2 hours at 4° C., the beads were washed with lysis buffer, and bound proteins were eluted into the sample buffer and subjected to western blot analysis, as described above. The p-HER3 protein was then detected by using an anti-phospho-tyrosine antibody (PY-20-HRP, BD Transduction Laboratories, San Diego, Calif.). An antibody to actin was used as a loading control. […]

COX-2 mRNA = experiment: Semiquantitative RT-PCR analysis in SW837 cells; format: cell-based, human; conditions: 20 μg/mL
Protocol: RNA extraction and semiquantitative RT-PCR analysis were performed using the methods described in Suzui, et al., Cancer Res., 62:3997-4006 (2002). Total RNA was isolated from SW837 human colon cancer cells using Trizol reagent (Invitrogen) according to the manufacturer's instructions. cDNA was amplified from 1 μg of total RNA using SuperScript one-step RT-PCR with the platinum Taq system (Invitrogen). PCR was conducted for 25 cycles in a thermal controller (Programmable Thermal Controller; MJ Research Inc., Watertown, Mass.). The COX-2 specific primer sets […]-2 ([NT]) and […]-2 ([NT]) were designed using the sequence described in Hla et al., Proc. Natl. Acad. Sci. USA, 89:7384-7388 […]. Actin specific primer sets and the amplification cycle conditions were as described in Suzui, et al., Cancer Res., 62:3997-4006 (2002). The intensities of mRNA bands were quantified using NIH Image software version 1.62.

Bcl-xL = experiment: Western blot analysis in SW837 cells; format: cell-based, human; conditions: 1.0 μg/mL, 96 hours
From the text: (§1) Total cellular protein was extracted and equivalent amounts of protein can be determined by western blot analysis using the methods described in Suzui, et al., Cancer Res., 62:3997-4006 (2002). The primary antibodies for several proteins are described in Masuda et al., Clin Cancer Res., 7:4220-4229 (2001); Masuda et al., Clin Cancer Res., 9:3486-3491 (2003); and Shimizu et al., Clin Cancer Res., 11:2735-2746 (2005). The primary antibodies for HER3 (2F12) and COX-2 (PG27) were purchased from Upstate Cell Signaling Solutions (Charlottesville, Va.) and Oxford Biochemical Research (Oxford, Mich.), respectively. To examine the levels of expression of the phosphorylated (i.e. activated) form of the HER3 protein (p-HER3), cellular lysates (1 mg/mL) were incubated with 4 μg anti-HER3 antibody overnight at 4° C. with slow agitation, and immune complexes were then precipitated by adding protein A/G agarose (sc-2003, Santa Cruz Biotechnology, Santa Cruz, Calif.). After incubating for 2 hours at 4° C., the beads were washed with lysis buffer, and bound proteins were eluted into the sample buffer and subjected to western blot analysis, as described above. The p-HER3 protein was then detected by using an anti-phospho-tyrosine antibody (PY-20-HRP, BD Transduction Laboratories, San Diego, Calif.). An antibody to actin was used as a loading control. Each membrane was developed using an ECL-enhanced chemiluminescence system (Amersham Biosciences, Piscataway, N.J.).

p-Akt = experiment: Western blot analysis in SW837 cells; format: cell-based, human; conditions: 20 μg/mL, at 6 hours
From the text: as §1

p-ERK = experiment: Western blot analysis in SW837 cells; format: cell-based, human; conditions: 20 μg/mL, at 12 hours
From the text: as §1

IGF-1R proteins = experiment: Western blot analysis for IGF in SW837 cells, total receptor; format: cell-based, human; conditions: 20 μg/mL, during the time course
From the text: Total cellular protein was extracted and equivalent amounts of protein were examined by western blot analysis, as described above in Example 6. Cell lysates were separated by SDS-PAGE using 7.5 to 15% polyacrylamide gels and transferred onto Immobilon-P transfer membranes (Millipore Co., Bedford, Mass.). The primary antibodies for IGF-1R[…](#3022) and p-IGF-1R (#3021) were purchased from Cell Signaling Technology (Beverly, Mass.). The primary antibodies for IGF-1R[…](sc-713) and IGFBP-3 (sc-6003) were purchased from Santa Cruz Biotechnology (Santa Cruz, Calif.). The primary antibodies for IGF-1 (clone Sm1.2) and actin (A2066) were purchased from Upstate Cell Signaling Solutions (Charlottesville, Va.) and Sigma Chemical Co. (St Louis, Mo.), respectively. An antibody to actin was used as a loading control. Anti-mouse IgG (Amersham Pharmacia Biosciences, Piscataway, N.J.), anti-rabbit IgG (Amersham Pharmacia Biosciences), or anti-goat IgG (Santa Cruz Biotechnology) antibodies were used as the secondary antibodies. Each membrane was developed using an ECL-enhanced chemiluminescence system (Amersham Biosciences).

[3] = HT29, Triton X-100 sensitivity and DilC16 incorporation

Substance: (−)-epigallocatechin gallate
- production of IGFBP-3 (IGFBP-3): increased the production
- lowest concentration at which the membrane effects were detected [1, 3]: 2 mg/mL
- time within which the membrane effects were detected [1, 3]: ≤ 5 min
- sensitivity of the plasma membrane to extraction using cold Triton X-100 ([1]; HT29 pretreated with DilC16): marked increase
- inhibition of growth [2]: about 55%
- levels of the p-HER3 protein (p-HER3; 1.0 μg/mL, 96 hours): decrease
- levels of the p-HER3 protein (p-HER3; 20 μg/mL, within 6 hours): marked decrease
- cellular level of the COX-2 mRNA (COX-2 mRNA; at 48 hours): marked decrease
- cellular level of the COX-2 mRNA (COX-2 mRNA; beginning at about 6 hours): progressive decrease
- levels of the Bcl-xL protein (Bcl-xL): decrease
- levels of the p-Akt protein (p-Akt): marked decreases
- levels of the p-ERK protein (p-ERK): marked decreases
- levels of the IGF-1R proteins (total) (IGF-1R proteins): no significant changes
